Source: patent publication US20070203247A1, “E[…] REGIMENS” (priority 2006, published 2007)
Like-named read-outs stand apart in the source and are kept apart here.

System: patient experiencing an allergic emergency (anaphylaxis)
Conditions: no amelioration after approx. 5 minutes, same device, within about five minutes after second dose
Method: Administration of a first and second injectable dosage form comprising an epinephrine solution for the treatment of anaphylaxis
A patient weighing approximately 15 Kg experiencing an allergic emergency whereupon a caretaker initiates treatment at the onset of shortness of breath by administering to the patient an auto-injection of a first dose of an epinephrine solution comprising 0.1 mg of epinephrine intramuscularly.
A patient weighing approximately 25 Kg experiencing an allergic emergency initiates treatment at the onset of shortness of breath by self administering a manual injection of a first dose of an epinephrine solution comprising 0.125 mg of epinephrine intramuscularly.
A patient weighing approximately 90 Kg experiencing an allergic emergency initiates treatment at the onset of shortness of breath by self administering an auto-injection of a first dose of an epinephrine solution comprising 0.6 mg of epinephrine subcutaneously.
A patient weighing approximately 110 Kg experiencing an allergic emergency initiates treatment at the onset of shortness of breath by self administering an auto-injection of a first dose of an epinephrine solution comprising 0.75 mg of epinephrine intramuscularly.

CNC[C@H](O)c1ccc(O)c(O)c1 [epinephrine]
patient's symptoms of anaphylaxis after the second injectable dose (Example 1: patient approx. 15 Kg, first dose 0.1 mg auto-injection intramuscularly, second dose 0.15 mg manual intramuscularly): symptoms of anaphylaxis are relieved or are at an acceptable level for transporting the patient to a physician | patient's symptoms of anaphylaxis after the second injectable dose (Example 2: patient approx. 25 Kg, first dose 0.125 mg manual intramuscularly, second dose 0.125 mg manual intramuscularly): symptoms of anaphylaxis are relieved or are at an acceptable level for transporting the patient to a physician | patient's symptoms of anaphylaxis after the second injectable dose (Example 3: patient approx. 90 Kg, first dose 0.6 mg auto-injection subcutaneously, second dose 0.75 mg manual intramuscularly): symptoms of anaphylaxis are relieved or are at an acceptable level for transporting the patient to a physician | patient's symptoms of anaphylaxis after the second injectable dose (Example 4: patient approx. 110 Kg, first dose 0.75 mg auto-injection intramuscularly, second dose 1.0 mg auto-injector intramuscularly): symptoms of anaphylaxis are relieved or are at an acceptable level for transporting the patient to a physician
